Peptide text beside a SMILES is read from it.
How the values were obtained:
SIRT5 = SIRT5 transcription, semi-quantitative RT-PCR in human epidermal progenitors; assay type: cell-based; settings: 72 h
Protocol: Human neonatal epidermal progenitors (Thermo Fisher Scientific, NY) were seeded in 6-well plates at a density of 2×10^5 cells/well. Each well received 2 ml of Epilife media containing 60 μM calcium chloride (Thermo Fisher Scientific, NY). Plates were incubated in a humidified chamber at 37 degrees Celsius and 5 percent CO2. Twenty-four hours later, cells were treated with various concentrations of oxyresveratrol or decapeptide-12 dissolved in PBS containing 5 percent DMSO. Control wells received vehicle only (5 percent DMSO and PBS). Final concentration of DMSO in each well was 0.05 percent.
After a 72 hour incubation period, cells were trypsinized and total RNA extracted, using RNeasy kit (Qiagen, Valencia, Calif.) according to the manufacturer's protocol.
RNA concentration was determined using nanodrop (Thermo fisher scientific, NY). Two μg of total RNA were used to synthesize cDNA using oligo dT primers and TaqMan reverse transcription reagents (Thermo fisher scientific, NY). The reaction was carried out in DNA Engine Peltier Thermal Cycler (Bio-Rad, Hercules, Calif.). The annealing temperature was 25 degrees Celsius for 10 minutes, followed by first strand synthesis at 48 degrees Celsius for 1 hour, and heat inactivation at 95 degrees Celsius for 5 minutes.
The SIRT1-7 primers (table 1) were designed using Primer3. The semi-quantitative PCR reactions were performed on a DNA Engine Peltier Thermo Cycler (Bio-Rad, Hercules, Calif.). PCR was carried under the following conditions: denaturation at 94 degrees Celsius for 2 minutes and primer extension at 54 degrees Celsius for 30 seconds in 34 cycles for SIRT 1-7 and the housekeeping gene 18S.
Samples were run and resolved on a 1.5 percent agarose gel containing 0.5 μg/ml of ethidium bromide and imaged using the FluorChem HD2 Imaging System (Protein simple, San Jose, Calif.). Densitometry analysis was carried out using the AlphaEase FC software (Protein simple, San Jose, Calif.). Intensity ratios were calculated as the intensity value for each gene divided by the intensity value of the internal control gene 18S.
The effect of the decapeptides P4, P4A, P4B, and P4C upon the transcription levels of sirtuins 1-7 was evaluated. Table 4 summarizes transcription levels for all four decapeptides with the corresponding genes, at tested concentrations of: 10, 30, 50, 100, and 300 (all in μM).

melanoblasts = experiment: MTT cell proliferation assay, melanoblasts; assay type: cell-based, human; settings: 100 μM, 72-hour incubation
Procedure, shortened: (§1)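 Human fibroblasts and melanoblasts were seeded at 2.5×10^4/well at 37 degrees Celsius, 5 percent CO2. Proliferation was read by MTT kit per manufacturer's protocol.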

fibroblasts = experiment: MTT cell proliferation assay, fibroblasts; assay type: cell-based, human; settings: 100 μM, 72-hour incubation
Procedure, shortened: as §1

[1] = Trypan blue cell viability, 7 days, epidermal progenitors; assay type: cell-based; settings: human, relative to control, read-out: epidermal progenitor viability after 7 days
Protocol: (§2) The effect of each of the decapeptides upon cell viability was also tested. In particular, cells were incubated with the decapeptide at various concentrations and then counted for viability relative to the control (untreated cells) using trypan blue. Cytotoxicity was measured according to the following formula:
(§3) [1−(# of cells in control−# of live cells in test sample)/# of cells in control]×100 percent.

[2] = Trypan blue cell viability, 7 days, melanoblasts; assay type: cell-based; settings: human, relative to control, read-out: melanoblast viability after 7 days
Protocol: as §2, §3

[3] = Trypan blue cell viability, 7 days, fibroblasts; assay type: cell-based; settings: human, relative to control, read-out: fibroblast viability after 7 days
Protocol: as §2, §3

CCCCCCCCCCCCCCCC(=O)N[C@@H](Cc1ccc(O)cc1)C(=O)N[C@@H](CCCNC(=N)N)C(=O)N[C@@H](CO)C(=O)N[C@@H](CCCNC(=N)N)C(=O)N[C@@H](CCCCN)C(=O)N[C@@H](Cc1ccc(O)cc1)C(=O)N[C@@H](CO)C(=O)N[C@@H](CO)C(=O)N[C@@H](Cc1c[nH]c2ccccc12)C(=O)N[C@@H](Cc1ccc(O)cc1)C(N)=O [P4A, Palmitoyl-YRSRKYSSWY-amide] (HELM PEPTIDE1{[CCCCCCCCCCCCCCCC(=O)[*:2]].Y.R.S.R.K.Y.S.S.W.Y.[am]}$$$$V2.0)
SIRT5 transcription increase relative to control (SIRT5; 10 μM): 13 ± 2% | SIRT5 transcription increase relative to control (SIRT5; 30 μM): 12 ± 2% | SIRT5 transcription increase relative to control (SIRT5; 50 μM): 10 ± 3% | SIRT5 transcription increase relative to control (SIRT5; 100 μM): 47 ± 7% | SIRT5 transcription increase relative to control (SIRT5; 300 μM): 29 ± 4% | reduction in the proliferation rate (melanoblasts): 3% | reduction in the proliferation rate (fibroblasts): 3% | viability at 168 h, 3 µM ([1]; 3 μM): 100% | viability at 168 h, 10 µM ([1]; 10 μM): 99 ± 1% | viability at 168 h, 30 µM ([1]; 30 μM): 98.2 ± 1% | viability at 168 h, 50 µM ([1]; 50 μM): 97.5 ± 1% | viability at 168 h, 100 µM ([1]; 100 μM): 96.9 ± 2% | viability at 168 h, 300 µM ([1]; 300 μM): 95.6 ± 2% | viability at 168 h, 500 µM ([1]; 500 μM): 94.3 ± 2% | viability at 168 h, 1000 µM ([1]; 1000 μM): 93.6 ± 3% | viability at 168 h, 3 µM ([2]; 3 μM): 100% | viability at 168 h, 10 µM ([2]; 10 μM): 99 ± 1% | viability at 168 h, 30 µM ([2]; 30 μM): 98.5 ± 1% | viability at 168 h, 50 µM ([2]; 50 μM): 98 ± 1% | viability at 168 h, 100 µM ([2]; 100 μM): 97 ± 2% | viability at 168 h, 300 µM ([2]; 300 μM): 96.2 ± 2% | viability at 168 h, 500 µM ([2]; 500 μM): 95.6 ± 2% | viability at 168 h, 1000 µM ([2]; 1000 μM): 94.8 ± 2% | viability at 168 h, 3 µM ([3]; 3 μM): 100% | viability at 168 h, 10 µM ([3]; 10 μM): 98.9 ± 1% | viability at 168 h, 30 µM ([3]; 30 μM): 98.4 ± 1% | viability at 168 h, 50 µM ([3]; 50 μM): 98 ± 1% | viability at 168 h, 100 µM ([3]; 100 μM): 97.4 ± 2% | viability at 168 h, 300 µM ([3]; 300 μM): 96.6 ± 2% | viability at 168 h, 500 µM ([3]; 500 μM): 95.5 ± 2% | viability at 168 h, 1000 µM ([3]; 1000 μM): 94.3 ± 2%

Reference: patent publication US20180296456A1, “Decapeptide-12 Modulation of Sirtuin Gene Expression in Epidermal Keratinocyte Progenitors” (Escape Therapeutics, Inc., priority 2017, published 2018)
